Patent US20010003780A1, “Retinoid antagonists and uses thereof” (priority 1997, published 2001)

System: trauma-induced caecal adhesion in rats
Test: trauma-induced caecal adhesion model in rats
Format: in vivo, rat
Description: Models of peritoneal adhesions induced by surgical trauma have been used to predict the clinical activity of a number of marketed anti-adhesion barrier devices. One such model is the trauma-induced caecal adhesion model in rats. A representative retinoid antagonist compound of the present invention, 4-{{(E)-(5,6-dihydro-5,5-dimethyl-8-phenyl)-2-naphthalenyl]vinyl]benzoic acid of the formula [drawing 49]
Adult female Wistar rats were used in our studies. The trauma induction was carried out using aseptic conditions in animals anesthetized with a mixture of Ketamine (100 mg/kg) and Rompun (10 mg/kg) given IP. A 2 cm midline abdominal incision was made and the caecum was exteriorized. Both sides of the caecum were abraded with a dry gauze until there was evidence of punctate bleeding. After replacing the organ in the abdominal cavity, the incision was closed. Trauma to the caecum produces fibrous scar tissue or adhesions to adjacent organs, peritoneal wall, or the omentum. Animals were treated with test compound orally or by intravenous injection or intra-abdominally by direct instillation into the peritoneal cavity. Oral treatments were administered once daily for up to 7 days. Intra-abdominal treatments were applied once post-trauma and just prior to wound closure.
On the seventh postoperative day, the animals were sacrificed and the peritoneal cavity was exposed and examined for adhesions. Three criteria that were used to evaluate the adhesions are: severity of the adhesions, extent or area of the ceacum involved with adhesions and the number of adhesions formed in each animal. Statistical analysis of the data was performed using students' T test. The following scoring system was used:
The test compound described above administered by the intra-abdominal route was compared to some other representative retinoid antagonists of the present invention. A single dose of compound in 3 ml volume was instilled over the traumatized caecum and abdominal cavity prior to closing the incision. Seven days later the animals were sacrificed and the abdominal cavity was examined for adhesions to the caecum.

[1] = administered orally for 7 days, 10 and 15 mg/kg, compared to the vehicle control (FIG. 1)

Compound	effect on trauma induced adhesions (number, severity and extent of caecal adhesions) (orally administered, at twice the dose of the test compound (Table 1))	number of adhesions per animal [1]	severity of adhesions per animal [1]	severity of caecal adhesions (single intra-abdominal application at 5 mg in 3 ml, examined seven days later (Table 2))	number of adhesions formed (single intra-abdominal application at 5 mg in 3 ml, examined seven days later, compared to the vehicle control (Table 2))
CC1=C(/C=C/C(C)=C/C=C/C(C)=C/C(=O)O)C(C)(C)CCC1 [All-trans retinoic acid, all-trans retinoic acid, reference compound]	no significant effect	–	–	–	–
CC1(C)CC=C(c2ccccc2)c2cc(/C=C/c3ccc(C(=O)O)cc3)ccc21 [compound A, 4-{{(E)-(5,6-dihydro-5,5-dimethyl-8-phenyl)-2-naphthalenyl]vinyl]benzoic acid]	–	significantly reduced	significantly reduced	effectively reduced	significantly reduced
